Where two headings read alike, the source gives them in different places.

The record followed here is patent US20190322638A1, “DIPYRIDYL ALKALOID, PREPARATION METHOD THEREFOR AND USE THEREOF” (OCEAN UNIVERSITY OF CHINA, priority 2016, published 2019).

Data set [1] is described as follows: Toxicity to normal cells, MTT method. Conditions: human, L-02 cell line. The format is cell-based. The procedure: (§1) Cell lines and subculture of cells: The following five tumor cell lines were used for activity test human colon cancer cell lines (HCT-116 cells), human hepatoma cell lines (HepG2 cells), human breast cancer cell lines (MCF-7 cells), cervical cancer cell lines (Hela cells), human peripheral blood leukemia T cell lines (Jurkat cells), and human normal liver cell lines (L-02 cells), of which MCF-7, HepG2, Hela, and L-02 cell lines were tested using the MTT model; HCT-116 cell lines were tested using the SRB model. All of the cells were subcultured in a 10% FBS-containing RPMI-1640 medium in an incubator charged with 5% carbon dioxide at 37° C.
(§2) MTT method: Dehydrogenase in mitochondria in live cells was capable of metabolizing yellow bromized 3-(4,5-dimethylthiazole)-2,5-diphenyltetrazolium into ianthinus water-insoluble formazan, and an amount of formazan could be determined by measuring the absorbance thereof with a microplate reader. Since the amount of formazan was directly proportional to the number of live cells, the number of live cells could be determined from the absorbance to learn about the drug's capability of inhibiting or killing tumor cells. […] The cell suspension was inoculated to a 96-well plate at 100 μL per well, and cultured at 37° C. for 24 hours. Thereafter, 100 μL of the sample solutions at different concentrations were added to respective wells and continued to be cultured for 72 hours. Then, 20 μL of MTT-containing IPMI-1640 solution ([…]) was added. After further cultivation for 4 hours, the culture solutions were slowly decanted and 150 μL of DMSO was added to dissolve the formazan, and the absorbance was measured at a wavelength of 540 nm. […] The half inhibitory concentration against cancer cells (IC50) and the half inhibitory concentration against normal cells (CC50) were determined.
A general note: Tetrazolium assays rely on reduction of a dye to a coloured formazan, in cell work by metabolically active cells.

Data set [2] relates to human colon cancer cell lines (HCT-116 cells). As to the kind of experiment: In vitro antitumor activity, SRB method. The format is cell-based. Conditions: for SI = CC50 (normal cell line L-02)/IC50 (tumor cell line): HCT-116 cell line vs L-02; for IC50: Homo sapiens, read-out: Cytotoxic Activity IC50. The procedure:
as §1
SRB method: According to the cell growth rate, tumor cells at the logarithmic phase (medium: RPMI-1640 medium containing 10% newborn fetal bovine serum (FBS); cell density: 3×10^4 cells/mL) were inoculated into a 96-well culture plate at 180 μL/well, and subjected to adherent growth for 24 hours at 37° C. under 5% CO2. Subsequently, a test sample was added at 20 μL/well, and four duplicated wells were provided at each concentration. […] The culture solution was decanted, and the cells were fixed with 10% cold trichloroacetic acid (TCA), allowed to stand at 4° C. for 1 hour, and then washed 5 times with distilled water and dried in the air. Thereafter, 100 μL/well of a 4 mg/ml solution of sulforhodamine B (SRB, Sigma) formulated by 1% glacial acetic acid was added, and the mixture was stained at a room temperature for 15 minutes, and the supernatant was removed, washed 5 times with 1% acetic acid, and dried in the air. Finally, 150 μL/well of Tris solution was added, and the absorbance (OD value) was measured with a microplate reader at a wavelength of 540 nm. […] The half inhibitory concentration against cancer cells (IC50) was determined.
(§3) Selection Index (SI) is the ratio of the CC50 value of a test sample inhibiting the growth of normal cell lines to the IC50 value of the test sample inhibiting tumor cell proliferation, which reflects the selectivity and safety of the sample.
(§4) SI=CC50(normal cell line L-02)/IC50(tumor cell line) Equation: […]
(In SRB staining, fixed cells bind dye roughly in proportion to their protein.)

Data set [3] has as its system human hepatoma cell lines (HepG2 cells). The data set can be described thus: In vitro antitumor activity, MTT method. The format is cell-based. Particulars: for SI = CC50 (normal cell line L-02)/IC50 (tumor cell line): HepG2 cell line vs L-02; for IC50: Homo sapiens, read-out: Cytotoxic Activity IC50. The protocol:
as §1, §2, §3, §4

Data set [4] concerns cervical cancer cell lines (Hela cells). The data set can be described thus: In vitro antitumor activity, MTT method. In kind it is cell-based. Conditions: for SI = CC50 (normal cell line L-02)/IC50 (tumor cell line): Hela cell line vs L-02; for IC50: Homo sapiens, read-out: Cytotoxic Activity IC50. The protocol:
as §1, §2, §3, §4

In data set [5] the test system is human peripheral blood leukemia T cell lines (Jurkat cells). As to the kind of experiment: In vitro antitumor activity, Jurkat cells. Particulars: for IC50: Homo sapiens, read-out: Cytotoxic Activity IC50; for SI = CC50 (normal cell line L-02)/IC50 (tumor cell line): Jurkat cell line vs L-02. In kind it is cell-based. The procedure:
as §1, §3, §4

For data set [6], the system named is colon cancer HCT-116 transplantation tumors. The data set can be described thus: In vivo antitumor test on transplantation tumors in nude mice. Particulars: HCT-116, 14 days, Docetaxel 5 mg/kg intravenously every other day, Compound 2 7.5 mg/kg intraperitoneally daily; for Tumor Weight: X ± S; for Inhibition Rate % (tumor inhibition rate): vs negative control. Details: species or system BALB/C (nu/nu) nude mice. The protocol: An in vivo antitumor test for Compound 2 was conducted on in vivo transplantation tumors from nude mice experiencing colon cancer HCT-116.
Laboratory mice: BALB/C, (nu/nu) nude mice, from 18 to 20 g in weight, male; purchased from BEIJING HFK BIOSCIENCE Co., LTD.; License No.: SCXK (Jing)-2014-0004.
Positive drug: Docetaxel, dissolved with Tween DMSO as a solvent and formulated into 9 mg/mL solution for service; diluted with normal saline.
Test drug: Compound 2, 10 mg/mL of stock solution being dissolved with DMSO, diluted with normal saline till the concentration was 0.75 mg/mL, and the administration volume was 0.1 mL/10 g body weight.
(§5) A cell suspension of human colon cancer cell line HCT-116 at a concentration of 30 million/mL was formulated in a 5 A medium containing 10% fetal bovine serum. After conventional disinfection, the cell suspension was inoculated subcutaneously into the armpits of the right forelimbs of the mice at a dose of 0.2 ml for each. The mice were not administered until the tumors had grown to an average volume of about 100 mm^3. Positive drugs, compounds, and negative control groups were arranged. The dosages were 5 mg/kg of Docetaxel (positive), and 7.5 mg/kg of Compound 2. Routes of administration were as follows: Docetaxel was intravenously administered every other day; Compound 2 was intraperitoneally injected daily; the negative control group was intraperitoneally injected with isometric normal saline. The mice were administered for 14 days, during which the mice were weighed daily and the variation trends of body weights of the mice were calculated. The mice were killed 24 hours after the last administration. Their tumor tissues were dissected, the tumor mass was weighed, and the tumor inhibition rate was calculated. The equation for calculating the tumor inhibition rate was as follows: […]
(§6) Statistical analysis: The SPSS 13.0 statistical software was used for data processing. The resulting data were marked with X±S. The data from each group were analyzed by t test, and the P value was used to indicate difference between groups.

Data set [7] concerns human breast cancer cell lines (MCF-7 cells). The data set can be described thus: In vitro antitumor activity, MTT method. The format is cell-based. Conditions: for IC50: Homo sapiens, read-out: Cytotoxic Activity IC50; for SI = CC50 (normal cell line L-02)/IC50 (tumor cell line): MCF-7 cell line vs L-02. The procedure:
as §1, §2, §3, §4

The nature of data set [8]: Spleen index, body weight and behavioral observation of mice in the in vivo antitumor test. The arrangement: species or system BALB/C (nu/nu) nude mice. Conditions: nude mice; for effect on body weight of the mice / effect on spleen index of mice (in words): 14 days administration; for Spleen Index (100 × spleen mass/body mass): 14 days, Docetaxel (10 mg/kg as printed in Table 11), Compound 2 7.5 mg/kg. The procedure:
as §5, with “The dosages were 5 mg/kg of Docetaxel (positive), and 7.5 mg/kg of Compound 2.” left out
In the meantime, the spleens were removed from the mice, and the capsules were peeled off. The mass of the spleens of the mice was recorded respectively, and the spleen indices were calculated by the following equation:
spleen index=100×spleen mass/body mass.
as §6

The mark [9] stands for this setting: HCT-116 cell line, SRB, 72 hours.

In general, CC50 refers to the concentration giving 50% cytotoxicity. Read a high CC50 as lower toxicity to the cells. As usually defined, the IC50 is the concentration that inhibits the measured activity by half. For `C[C@@H]1O[C@@H](Oc2cc(/C=N/O)nc(-c3ccccn3)c2)[C@H](O)[C@H](O)[C@H]1O` [Compound 1], the CC50 at 72 h in data set [1] (L-02 normal liver cells) stood at 28.3 µM. Also, the “SI = CC50 (normal cell line L-02)/IC50 (tumor cell line)” value (shortened to “SI = CC50 (normal cell line L-02)/IC50”) in data set [2] came to 40.4; in data set [3], 10.5; in data set [4], 3.1; in data set [5] it was 2.6. Also, the half-maximal inhibitory concentration (IC50) in data set [2] (setting [9]) was 0.7 µM; in data set [3] (HepG2 cell line, MTT, 72 hours), 2.7 µM; in data set [4] (Hela cell line, MTT, 72 hours) it was 9 µM; in data set [5] (Jurkat cell line) it was 10.8 µM.

`COc1cc(/C=N/O)nc(-c2ccccn2)c1` [Compound 2] returned a CC50 at 72 h in data set [1] of 3.9 µM. Besides, the “SI = CC50 (normal cell line L-02)/IC50” value is recorded as 13.0 in data set [2]; 3.9 in data set [7]; 19.5 in data set [3]; 39 in data set [4]; 19.5 in data set [5]. Besides, the IC50 in data set [2] (HCT-116, 72 h) was 0.3 µM; in data set [7] (MCF7, 72 h), 1 µM; in data set [3] (HepG2, 72 h), 0.2 µM; in data set [4] (HeLa, 72 h), 0.1 µM; in data set [5] (Jurkat) it was 0.2 µM. The “Tumor Weight” value in data set [6] is 0.59 ± 0.33 g. Besides, in data set [6], the “Inhibition Rate % (tumor inhibition rate)” value was 42.46%. In addition, the “effect on body weight of the mice” value in data set [8] was “not adversely affected”. Besides, the “effect on spleen index of mice (in words)” value in data set [8] was “no effect”. Also, in data set [8], the “Spleen Index (100 × spleen mass/body mass)” value came to 0.45 ± 0.09. In data set [8] (within 14 days after administration, 7.5 mg/kg intraperitoneally daily), the “behavioral observation: adverse effects” value was “no obvious adverse effects such as allergy were observed”.

`COc1cc(/C=N/O)nc(-c2ccccn2)c1O` [Compound 4] had a CC50 at 72 h in data set [1] of 1.7 µM. The “SI = CC50 (normal cell line L-02)/IC50” value in data set [2] worked out at 1.2. Also, the IC50 in data set [2] (HCT-116, 72 h) came to 1.4 µM.

Regarding `COc1cc(/C=N/O)nc(-c2ccc(F)cn2)c1` [Compound 5], in data set [1] (L-02 normal liver cells), it took 7.5 µM to reach half-maximal cytotoxicity (CC50 at 72 h). The “SI = CC50 (normal cell line L-02)/IC50” value in data set [4] stood at 1.7. The IC50 in data set [4] (Hela cell line, MTT, 72 hours) was 4.4 µM.

With `COc1cc(C=O)nc(-c2ccccn2)c1` [Compound 6], half-maximal cytotoxicity in data set [1] (L-02 normal liver cells) (CC50 at 72 h) was put at 31.4 µM. Besides, the “SI = CC50 (normal cell line L-02)/IC50” value is 5.2 in data set [2], 2.6 in data set [7], 1.6 in data set [4] and 2.2 in data set [5]. Besides, the IC50 in data set [2] (setting [9]) was determined as 6 µM; in data set [7] (MCF7, MCF-7 cell line, MTT, 72 hours), 12 µM; in data set [4] (Hela cell line, MTT, 72 hours) it was 19.3 µM; in data set [5] (Jurkat cell line), 14.5 µM.

`C[C@H]1O[C@H](Oc2cc(/C=N/O)nc(-c3ccccn3)c2)[C@H](O)[C@@H](O)[C@@H]1O` [Compound 7]: the CC50 at 72 h in data set [1] (L-02 normal liver cells) was determined as 59.5 µM. In addition, the “SI = CC50 (normal cell line L-02)/IC50” value is recorded as 27.0 in data set [2], 6.0 in data set [3], 23.8 in data set [4] and 45.8 in data set [5]. The IC50 in data set [2] (setting [9]) stood at 2.2 µM; in data set [3] (HepG2 cell line, MTT, 72 hours) it was 10 µM; in data set [4] (Hela cell line, MTT, 72 hours) it was 2.5 µM; in data set [5] (Jurkat cell line), 1.3 µM.

As to `CC(=O)O[C@@]12CO[C@@H]1C[C@H](O)[C@@]1(C)C(=O)[C@H](O)C3=C(C)[C@@H](OC(=O)[C@H](O)[C@@H](NC(=O)OC(C)(C)C)c4ccccc4)C[C@@](O)([C@@H](OC(=O)c4ccccc4)[C@H]21)C3(C)C` [Docetaxel, reference compound], in data set [6], the “Tumor Weight” value was found to be 0.13 ± 0.07 g and the “Inhibition Rate % (tumor inhibition rate)” value came out at 87.39%. In data set [8], the “effect on body weight of the mice” value is “decreased”, the “effect on spleen index of mice (in words)” value is listed as “decreased” and the “Spleen Index (100 × spleen mass/body mass)” value amounted to 0.25 ± 0.11.
